This is an account of results in paper PMC6222323, “Exploiting the Chalcone Scaffold to Develop Multifunctional Agents for Alzheimer’s Disease” (Molecules : A Journal of Synthetic Chemistry and Natural …, 2018).

Usually IC50 stands for the concentration that gives 50% inhibition. For orientation: inhibition means the share of the control response that was lost under treatment.

For data set [1], the target named is BuChE from human serum (hBuChE) (Homo sapiens, UniProt P06276). The data set can be described thus: biochemical. Type of data set: biochemical. To be noted: for IC50: read-out: IC50 (µM) ± SEM hBuChE.
BuChE from human serum (hBuChE), sequence (P06276 29-602): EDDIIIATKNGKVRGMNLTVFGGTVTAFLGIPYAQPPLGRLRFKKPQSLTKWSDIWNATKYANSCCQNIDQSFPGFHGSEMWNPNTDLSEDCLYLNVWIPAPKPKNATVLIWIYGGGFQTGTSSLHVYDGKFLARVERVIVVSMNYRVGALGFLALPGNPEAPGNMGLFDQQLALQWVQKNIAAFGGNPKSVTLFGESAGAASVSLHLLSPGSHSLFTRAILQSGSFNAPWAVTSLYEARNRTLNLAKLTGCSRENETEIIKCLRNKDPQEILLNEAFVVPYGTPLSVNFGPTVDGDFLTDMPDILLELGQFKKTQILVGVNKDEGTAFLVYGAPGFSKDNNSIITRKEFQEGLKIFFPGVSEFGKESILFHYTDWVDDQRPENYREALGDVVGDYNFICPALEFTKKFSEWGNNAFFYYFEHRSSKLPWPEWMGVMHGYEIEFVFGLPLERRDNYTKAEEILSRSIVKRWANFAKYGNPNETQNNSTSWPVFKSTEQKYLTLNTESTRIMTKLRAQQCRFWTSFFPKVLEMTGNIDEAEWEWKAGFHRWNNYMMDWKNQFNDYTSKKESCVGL
The target of data set [2] is human recombinant AChE (hAChE) (Homo sapiens, UniProt P22303). The data set can be described thus: biochemical. Type of data set: biochemical. To be noted: for SI: selectivity index for AChE: calculated as IC50 hBuChE/hAChE ratio; for IC50: read-out: IC50 (µM) ± SEM hAChE.
human recombinant AChE (hAChE), sequence (P22303 32-614): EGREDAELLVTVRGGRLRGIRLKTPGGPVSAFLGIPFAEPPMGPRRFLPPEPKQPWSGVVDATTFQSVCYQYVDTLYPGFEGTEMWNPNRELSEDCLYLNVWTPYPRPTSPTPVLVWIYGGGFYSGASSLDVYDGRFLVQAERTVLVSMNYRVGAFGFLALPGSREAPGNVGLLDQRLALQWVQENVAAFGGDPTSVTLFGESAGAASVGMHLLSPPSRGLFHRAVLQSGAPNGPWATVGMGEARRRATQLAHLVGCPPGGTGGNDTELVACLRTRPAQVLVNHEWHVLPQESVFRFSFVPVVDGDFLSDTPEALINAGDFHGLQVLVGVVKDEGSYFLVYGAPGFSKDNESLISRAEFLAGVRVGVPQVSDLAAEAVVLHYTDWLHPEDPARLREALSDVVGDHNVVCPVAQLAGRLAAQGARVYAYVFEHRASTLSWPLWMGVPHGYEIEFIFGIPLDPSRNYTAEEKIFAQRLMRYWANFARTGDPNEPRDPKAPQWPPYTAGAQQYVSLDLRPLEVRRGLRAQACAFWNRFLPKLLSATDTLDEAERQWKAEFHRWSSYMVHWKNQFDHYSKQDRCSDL
In data set [3] the test system is SH-SY5Y cells. The data set can be described thus: Glutathione (GSH) levels (MCB probe). To be noted: 1.25 µM compound for 24 h, vs. control. Type of data set: cell-based, human.
Data set [4] has as its system SH-SY5Y cells. Type of data set: cell-based. To be noted: 24 h treatment, 2.5–80 µM tested, MTT assay, SH-SY5Y cells (data not shown). For orientation: Formazan colour is commonly taken as a measure of viable cells.
The subject of data set [5] is SH-SY5Y cells. The data set is described as follows: Neuroprotective activity toward Aβ1–42 oligomers, MTT formazan exocytosis assay. The data set is classed as cell-based, human. To be noted: 1.25 µM compound with OAβ1–42 10 µM for 4 h.
The subject of data set [6] is SH-SY5Y cells. The data set can be described thus: Antioxidant activity, ROS formation induced by t-BuOOH (H2DCF-DA probe). The data set is classed as cell-based. To be noted: Homo sapiens, 1.25 µM compound for 24 h, then t-BuOOH 100 µM for 30 min, read-out: inhibition percentage in ROS formation induced by t-BuOOH.
The mark [7] stands for this setting: BuChE from human serum, 20 min preincubation at 37 °C, pH 8.0, n.a. = not active, inhibition lower than 15% at the highest tested concentration.
Setting [8] is: human recombinant AChE, 20 min preincubation at 37 °C, pH 8.0, n.a. = not active, inhibition lower than 15% at the highest tested concentration.

Take `CCN(CC)Cc1ccc(C(=O)C=Cc2ccc(OCCCCCCCN(C)Cc3ccccc3)cc2)cc1` [compound 1, 3-(4-((7-(Benzyl(methyl)amino)heptyl)oxy)phenyl)-1-(4-((diethylamino)methyl)phenyl)prop-2-en-1-one]: the values for the IC50 in data set [1] (setting [7]) and in data set [2] (setting [8]) were 8.83 ± 0.58 µM and 2.81 ± 0.29 µM, respectively. Moreover, the “SI: selectivity index for AChE” value in data set [2] is on record as 3.14. Also, the “fold increase in hAChE inhibitory activity” value in data set [2] (methylendiethylamino group in place of the methoxy group (compounds 2, 12)) was determined as 35 fold.
Take `COc1ccc(C(=O)C=Cc2ccc(OCCCCCCCN(C)Cc3ccccc3)cc2)cc1` [compound 2, 3-(4-((7-(Benzyl(methyl)amino)heptyl)oxy)phenyl)-1-(4-methoxyphenyl)prop-2-en-1-one]: in data set [3], the “effect on GSH levels” value was “decreased GSH basal levels”. Further, the “concentrations that did not affect neuronal viability” value in data set [4] is listed as “up to 2.5 µM”. Further, in data set [5], the “neuroprotective activity toward OAβ1–42 induced toxicity (neuronal viability)” value was “reinforced the neurotoxic effects”. In addition, the inhibition at 1.25 µM in data set [6] stood at 16%. The IC50 in data set [1] (setting [7]) came out at 2.85 ± 0.7 µM; in data set [2] (setting [8]), 98.5 ± 8.8 µM. In addition, the “SI: selectivity index for AChE” value in data set [2] was 0.03.
As for `CCN(CC)CCOc1ccc(C(=O)C=Cc2ccc(OCCCCCCCN(C)Cc3ccccc3)cc2)cc1` [compound 3, 3-(4-((7-(Benzyl(methyl)amino)heptyl)oxy)phenyl)-1-(4-(2-(diethylamino)ethoxy)phenyl)-prop-2-en-1-one], the IC50 in data set [1] (setting [7]) is 19.9 ± 5.5 µM; in data set [2] (setting [8]), 0.7 ± 0.09 µM. Further, the “SI: selectivity index for AChE” value in data set [2] is on record as 28.4.
As to `CCN(CC)CCCOc1ccc(C(=O)C=Cc2ccc(OCCCCCCCN(C)Cc3ccccc3)cc2)cc1` [compound 4, 3-(4-((7-(Benzyl(methyl)amino)heptyl)oxy)phenyl)-1-(4-(3-(diethylamino)propoxy)phenyl)-prop-2-en-1-one], the “effect on GSH levels” value in data set [3] is recorded as “significantly increased GSH levels”. Also, the “concentrations that did not affect neuronal viability” value in data set [4] is on record as “up to 2.5 µM”. Moreover, the “neuroprotective activity toward OAβ1–42 induced toxicity (neuronal viability)” value in data set [5] is “partially counteracted the neurotoxic effects”. Besides, the inhibition at 1.25 µM in data set [6] is 27%. For the same molecule, the IC50 is 2.38 ± 0.05 µM in data set [1] (setting [7]) and 0.92 ± 0.07 µM in data set [2] (setting [8]). The “SI: selectivity index for AChE” value in data set [2] is on record as 2.6.
Regarding `CCN(CC)CCCCOc1ccc(C(=O)C=Cc2ccc(OCCCCCCCN(C)Cc3ccccc3)cc2)cc1` [compound 5, 3-(4-((7-(Benzyl(methyl)amino)heptyl)oxy)phenyl)-1-(4-(4-(diethylamino)butoxy)phenyl)prop-2-en-1-one], the IC50 in data set [1] (setting [7]) was determined as 3.7 ± 0.08 µM; in data set [2] (setting [8]) it was 1.06 ± 0.08 µM. Besides, in data set [2], the “SI: selectivity index for AChE” value is recorded as 3.5.
Take `CN(CCCCCCCOc1ccc(C=CC(=O)c2ccc(OCCN3CCOCC3)cc2)cc1)Cc1ccccc1` [compound 6, 3-(4-((7-(Benzyl(methyl)amino)heptyl)oxy)phenyl)-1-(4-(2-morpholinoethoxy)phenyl)prop-2-en-1-one]: the IC50 came out at 11 ± 0.5 µM in data set [1] (setting [7]) and 511 ± 37 µM in data set [2] (setting [8]). Also, the “SI: selectivity index for AChE” value in data set [2] is 0.021. Further, the “fold worse hAChE inhibition than compound 7” value in data set [2] (morpholino vs piperidine derivative) is recorded as “about 500 fold”.
As to `CN(CCCCCCCOc1ccc(C=CC(=O)c2ccc(OCCN3CCCCC3)cc2)cc1)Cc1ccccc1` [compound 7, 3-(4-((7-(Benzyl(methyl)amino)heptyl)oxy)phenyl)-1-(4-(2-(piperidin-1-yl)ethoxy)phenyl)prop-2-en-1-one], the concentration for half-maximal inhibition (IC50) in data set [1] (setting [7]) was found to be 19.7 ± 0.6 µM; in data set [2] (setting [8]) it was 1.25 ± 0.06 µM. Besides, the “SI: selectivity index for AChE” value in data set [2] is recorded as 15.8.
The corresponding values for `CN(CCCCCCCOc1ccc(C=CC(=O)c2ccc(OCCN3CCc4ccccc4C3)cc2)cc1)Cc1ccccc1` [compound 8, 3-(4-((7-(Benzyl(methyl)amino)heptyl)oxy)phenyl)-1-(4-(2-(3,4-dihydroisoquinolin-2(1H)-yl)ethoxy)phenyl)prop-2-en-1-one] are 3.87 ± 0.3 µM, 16.5 ± 2.6 µM and 0.23.
The corresponding values for `CN(CCCCCCCOc1ccc(C=CC(=O)c2ccc(OCCN3CCC(n4c(=O)[nH]c5ccccc54)CC3)cc2)cc1)Cc1ccccc1` [compound 9, 1-(1-(2-(4-(3-(4-((7-(Benzyl(methyl)amino)heptyl)oxy)phenyl)acryloyl)phenoxy)ethyl)-piperidin-4-yl)-1,3-dihydro-2H-benzo[d]imidazol-2-one] are 3.93 ± 0.2 µM, 13.5 ± 2.3 µM and 0.29.
As to `CN(CCCCCCCOc1ccc(C=CC(=O)c2ccc(OCCN3CCC(c4ccccc4)CC3)cc2)cc1)Cc1ccccc1` [compound 10, 3-(4-((7-(Benzyl(methyl)amino)heptyl)oxy)phenyl)-1-(4-(2-(4-phenylpiperidin-1-yl)ethoxy)-phenyl)prop-2-en-1-one], the “IC50 (µM) ± SEM hBuChE” value in data set [1] (setting [7]) is “inactive”. For the same molecule, the “IC50 (µM) ± SEM hAChE” value in data set [2] (setting [8]) was “inactive”.
Consider `CN(CCCCCCCOc1ccc(C=CC(=O)c2ccc(OCCN3CCC(O)(c4ccc(Cl)cc4)CC3)cc2)cc1)Cc1ccccc1` [compound 11, 3-(4-((7-(Benzyl(methyl)amino)heptyl)oxy)phenyl)-1-(4-(2-(4-(4-chlorophenyl)-4-hydroxypiperidin-1-yl)ethoxy)phenyl)prop-2-en-1-one], for which the “IC50 (µM) ± SEM hBuChE” value in data set [1] (pH 8) was “inactive”. In addition, the “IC50 (µM) ± SEM hAChE” value in data set [2] (pH 8) is “inactive”.
Consider `COc1cccc(C(=O)C=Cc2ccc(OCCCCCCCN(C)Cc3ccccc3)cc2)c1` [compound 12, 3-(4-((7-(Benzyl(methyl)amino)heptyl)oxy)phenyl)-1-(3-methoxyphenyl)prop-2-en-1-one], for which the IC50 in data set [1] (setting [7]) turned out to be 8.58 ± 0.35 µM; in data set [2] (setting [8]) it was 105 ± 17 µM. For the same molecule, the “SI: selectivity index for AChE” value in data set [2] is reported as 0.08.
Take `CCN(CC)CCOc1cccc(C(=O)C=Cc2ccc(OCCCCCCCN(C)Cc3ccccc3)cc2)c1` [compound 13, 3-(4-((7-(Benzyl(methyl)amino)heptyl)oxy)phenyl)-1-(3-(2-(diethylamino)ethoxy)phenyl)-prop-2-en-1-one]: the values for the IC50 in data set [1] (setting [7]) and in data set [2] (setting [8]) were 0.92 ± 0.04 µM and 1.47 ± 0.11 µM, respectively. In addition, the “SI: selectivity index for AChE” value in data set [2] is 0.62.
In the case of `CCN(CC)CCCOc1cccc(C(=O)C=Cc2ccc(OCCCCCCCN(C)Cc3ccccc3)cc2)c1` [compound 14, 3-(4-((7-(Benzyl(methyl)amino)heptyl)oxy)phenyl)-1-(3-(3-(diethylamino)propoxy)phenyl)-prop-2-en-1-one], the IC50 in data set [1] (setting [7]) is 1.82 ± 0.05 µM; in data set [2] (setting [8]), 5.78 ± 0.67 µM. Also, in data set [2], the “SI: selectivity index for AChE” value is 0.31.
For `CCN(CC)CCOc1ccc(C(=O)CCc2ccc(OCCCCCCCN(C)Cc3ccccc3)cc2)cc1` [compound 16, 3-(4-((7-(Benzyl(methyl)amino)heptyl)oxy)phenyl)-1-(4-(2-(diethylamino)ethoxy)phenyl)-propan-1-one], in that order: 20.2 ± 1.7 µM, 6.21 ± 0.32 µM and 3.25.
As for `CCN(CC)CCCOc1ccc(C(=O)CCc2ccc(OCCCCCCCN(C)Cc3ccccc3)cc2)cc1` [compound 17, 3-(4-((7-(Benzyl(methyl)amino)heptyl)oxy)phenyl)-1-(4-(3-(diethylamino)propoxy)phenyl)-propan-1-one], the “effect on GSH levels” value in data set [3] is on record as “significantly increased GSH levels”. Besides, the “concentrations that did not affect neuronal viability” value in data set [4] is listed as “up to 2.5 µM”. Besides, in data set [5], the “neuroprotective activity toward OAβ1–42 induced toxicity (neuronal viability)” value is “No neuroprotective effect”. The inhibition at 1.25 µM in data set [6] is 23%. Moreover, the figures for the IC50 in data set [1] (setting [7]) and in data set [2] (setting [8]) were 5.04 ± 0.3 µM and 1.66 ± 0.09 µM, respectively. In data set [2], the “SI: selectivity index for AChE” value is on record as 3.04.
In the case of `CCN(CC)CCCCOc1ccc(C(=O)CCc2ccc(OCCCCCCCN(C)Cc3ccccc3)cc2)cc1` [compound 18, 3-(4-((7-(Benzyl(methyl)amino)heptyl)oxy)phenyl)-1-(4-(4-(diethylamino)butoxy)phenyl)-propan-1-one], the IC50 in data set [1] (setting [7]) came to 12.4 ± 2.4 µM; in data set [2] (setting [8]), 2.46 ± 0.11 µM. Also, in data set [2], the “SI: selectivity index for AChE” value is 5.04.
